The target in data set [1] is T1, Cytochrome P450 11B2, mitochondrial (Homo sapiens, UniProt P19099).
T1 sequence (P19099 whole entry): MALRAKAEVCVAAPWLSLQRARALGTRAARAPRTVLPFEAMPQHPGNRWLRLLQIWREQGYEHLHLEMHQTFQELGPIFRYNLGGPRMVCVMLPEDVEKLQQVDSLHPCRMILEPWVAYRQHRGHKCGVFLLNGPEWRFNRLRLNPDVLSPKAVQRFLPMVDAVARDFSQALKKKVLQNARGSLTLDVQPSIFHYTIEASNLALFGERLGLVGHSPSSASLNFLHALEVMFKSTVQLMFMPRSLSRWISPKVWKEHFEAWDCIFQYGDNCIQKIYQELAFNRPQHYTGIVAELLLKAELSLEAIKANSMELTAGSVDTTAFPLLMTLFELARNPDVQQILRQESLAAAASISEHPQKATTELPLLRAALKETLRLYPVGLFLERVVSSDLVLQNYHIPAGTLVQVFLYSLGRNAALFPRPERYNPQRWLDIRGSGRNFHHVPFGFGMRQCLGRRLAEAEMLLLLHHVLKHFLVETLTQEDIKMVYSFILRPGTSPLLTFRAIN
Put plainly: Inhibition of human CYP11B2-CLE9 expressed in Chinese hamster V79 cells using 11-deoxycorticosterone as substrate preincubated for 1 hr followed by substrate addition measured for 3 hrs by HTRF assay. It counts as cell-based.

The target in data set [2] is T2, Cytochrome P450 11B1, mitochondrial (Homo sapiens, UniProt P15538).
T2 sequence (P15538 whole entry): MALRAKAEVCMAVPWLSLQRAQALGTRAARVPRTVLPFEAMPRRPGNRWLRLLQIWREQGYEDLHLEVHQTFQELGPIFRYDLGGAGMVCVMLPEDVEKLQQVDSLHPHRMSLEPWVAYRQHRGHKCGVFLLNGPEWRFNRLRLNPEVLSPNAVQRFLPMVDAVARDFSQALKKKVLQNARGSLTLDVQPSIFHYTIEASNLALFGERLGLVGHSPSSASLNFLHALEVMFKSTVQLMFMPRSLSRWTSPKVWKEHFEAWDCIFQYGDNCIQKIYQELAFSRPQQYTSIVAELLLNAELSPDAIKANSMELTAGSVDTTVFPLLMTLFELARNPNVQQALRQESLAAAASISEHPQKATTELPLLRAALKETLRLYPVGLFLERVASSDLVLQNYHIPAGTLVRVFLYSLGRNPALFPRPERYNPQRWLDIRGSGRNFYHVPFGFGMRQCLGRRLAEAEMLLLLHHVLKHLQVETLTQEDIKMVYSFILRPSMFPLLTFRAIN
In words: Inhibition of human CYP11B1-8C7 expressed in Chinese hamster V79 cells using 11-deoxycortisol as substrate preincubated for 1 hr followed by substrate addition measured for 3 hrs by HTRF assay. It counts as ADME, cell-based. On the technique in general: TR-FRET usually uses a lanthanide donor and a delayed reading to cut background.

The nature of data set [3]: Selectivity ratio of IC50 for human CYP11B1-8C7 expressed in Chinese hamster V79 cells to IC50 for human CYP11B2-CLE9 expressed in Chinese hamster V79 cells.
Data set [4] in a line: Intrinsic clearance in rat liver microsomes at […] preincubated for 10 mins followed by NADPH addition measured after 45 mins by LC-MS analysis. It is filed as ADME, microsome. To be noted: read-out: CLH. (Liver microsomes are a subcellular fraction often used to study metabolism.)

One may read the IC50 as the midpoint of a concentration-inhibition curve. Read a low IC50 as higher potency. For `Cc1cccc2c1cnn2-c1cncc(C(C)(C)O)c1`, the figures for the 50% inhibitory concentration (IC50) in data set [1] and in data set [2] were 7.77 to 8 nM and 210 nM, respectively. Besides, the “Ratio IC50” value in data set [3] was determined as 27.

For `CC(C)(O)c1cncc(-n2ncc3ccc(Cl)cc32)c1`, the IC50 in data set [1] lay in the range of 528 to 530 nM; in data set [2] it was 8300 to 8330 nM. Besides, the “Ratio IC50” value in data set [3] was over 16.

Regarding `COc1cncc(-n2ncc3cc(F)ccc32)c1`, the IC50 in data set [1] was 44 to 44.1 nM; in data set [2], 1300 nM. For the same compound, the “Ratio IC50” value in data set [3] is recorded as 30.

Regarding `Fc1ccc2c(cnn2-c2cccnc2)c1`, the 50% inhibitory concentration (IC50) in data set [1] was 217 to 220 nM; in data set [2], 8300 to 8330 nM. The “Ratio IC50” value in data set [3] is listed as over 38. Also, in data set [4], the CLint scaled was 43 mL/min/kg.

Consider `COc1nn(-c2cncc(C(C)(C)O)c2)c2ccccc12`, for which the IC50 is 25 nM in data set [1] and 1400 to 1410 nM in data set [2]. The “Ratio IC50” value in data set [3] is 57.

With `CC(C)(O)c1cncc(-n2nc(C(F)(F)F)c3ccccc32)c1`, the IC50 in data set [1] is 300 to 304 nM; in data set [2], 8300 to 8330 nM. Besides, the “Ratio IC50” value in data set [3] is over 27.

Regarding `CC(C)(O)c1cncc(-n2ncc3cccc(F)c32)c1`, the results for the IC50 in data set [1] and in data set [2] were 0.9 nM and 10.7 to 11 nM, respectively. For the same compound, the “Ratio IC50” value in data set [3] stood at 12. Besides, the CLint scaled in data set [4] was under 20 mL/min/kg.

For the compound `CC(C)(O)c1cncc(-n2ncc3cc(Cl)ccc32)c1`, the IC50 was 27 to 27.3 nM in data set [1] and 470 nM in data set [2]. The “Ratio IC50” value in data set [3] is on record as 17.

Consider `CC(C)(O)c1cncc(-n2ncc3ccc(C(F)(F)F)cc32)c1`, for which the concentration for half-maximal inhibition (IC50) in data set [1] was 2300 nM; in data set [2], 8300 to 8330 nM. For the same compound, in data set [3], the “Ratio IC50” value was over 4.

Turning to `Fc1ccc2c(cnn2-c2cncc(C(F)(F)F)c2)c1`, the 50% inhibitory concentration (IC50) in data set [1] was in the range of 88 to 88.3 nM; in data set [2], 1690 to 1700 nM. Further, in data set [3], the “Ratio IC50” value is 19. For the same compound, the CLint scaled in data set [4] was 300 mL/min/kg.

Turning to `Cc1nn(-c2cncc(C(C)(C)O)c2)c2ccccc12`, the concentration for half-maximal inhibition (IC50) is 33.5 to 34 nM in data set [1] and 779 to 780 nM in data set [2]. Moreover, the “Ratio IC50” value in data set [3] came out at 44.

With `CC(C)(O)c1cncc(-n2ncc3ccccc32)c1`, the half-inhibitory concentration (IC50) in data set [1] is 15 to 15.1 nM; in data set [2], 535 to 540 nM. Besides, the “Ratio IC50” value in data set [3] turned out to be 36. Moreover, in data set [4], the CLint scaled is under 20 mL/min/kg.

With `Fc1cncc(-n2ncc3cc(F)ccc32)c1`, the half-inhibitory concentration (IC50) fell in the range of 456 to 460 nM in data set [1] and 8300 to 8330 nM in data set [2]. Further, the “Ratio IC50” value in data set [3] is over 18. Moreover, the CLint scaled in data set [4] turned out to be 85 mL/min/kg.

The compound `COC(=O)c1cccc2c1cnn2-c1cncc(C(C)(C)O)c1` displayed an IC50 in data set [1] of 22 to 22.1 nM.

As for `CC(C)(O)c1cncc(-n2ncc3cc(F)ccc32)c1`, the IC50 in data set [1] was 10.9 to 13 nM; in data set [2] it was 197 to 210 nM. For the same compound, the “Ratio IC50” value in data set [3] is 15 - 19. For the same compound, in data set [4], the CLint scaled came to 30 mL/min/kg.

As for `COC(=O)c1cncc(-n2ncc3cc(F)ccc32)c1`, the IC50 in data set [1] was determined as 31 nM; in data set [2], 520 nM. Moreover, in data set [3], the “Ratio IC50” value was determined as 17.

In the case of `CC(C)(O)c1cncc(-n2ncc3c(Cl)ccc(F)c32)c1`, the results for the IC50 in data set [1] and in data set [2] were 0.2 to 0.4 nM and 1.1 to 7.72 nM, respectively. Moreover, the “Ratio IC50” value in data set [3] was 5 - 20.

`CC(C)(O)c1cncc(-n2nc(C3CC3)c3ccccc32)c1`: the figures for the IC50 in data set [1] and in data set [2] were 760 to 763 nM and 8300 to 8330 nM, respectively. Besides, the “Ratio IC50” value in data set [3] is listed as over 11.

Regarding `CC(C)(O)c1cncc(-n2ncc3cc(C#N)ccc32)c1`, the results for the half-maximal inhibitory concentration (IC50) in data set [1] and in data set [2] were 1160 nM and 8300 to 8330 nM, respectively. For the same compound, in data set [3], the “Ratio IC50” value was over 7.

On to `COc1ccc2c(cnn2-c2cncc(C(C)(C)O)c2)c1`, for which the IC50 was 84.9 to 85 nM in data set [1] and 1000 nM in data set [2]. In data set [3], the “Ratio IC50” value turned out to be 12.

As for `Cc1ccc2c(cnn2-c2cncc(C(C)(C)O)c2)c1`, the IC50 was 97.9 to 98 nM in data set [1] and 916 to 920 nM in data set [2]. Moreover, the “Ratio IC50” value in data set [3] was 9.

Take `CC(O)(c1cncc(-n2ncc3cc(F)ccc32)c1)C(F)(F)F` (stereo unspecified): the IC50 in data set [1] fell in the range of 2 to 2.13 nM; in data set [2], 47 to 47.4 nM. The “Ratio IC50” value in data set [3] is 24. Besides, the CLint scaled in data set [4] stood at 230 mL/min/kg.
